# In publication PMC7771553 (Journal of medicinal chemistry, 2017):
# “Also recorded” adds a separate entry of the source. Where two headings read alike, the source gives them in different places.
# Assays:
# [1] = Parallel artificial membrane permeability assay; format: in vitro ADME; conditions: PAMPA
# MDA-MB-231 cells [2] = format: in vitro ADME; conditions: for nonspecific binding, 4 °C incubation (decrease of intracellular concentration): 6 h, compared with direct solvent extraction
# [3] = Cell-absent control: nonspecific binding with the cell culture plate; format: in vitro ADME; conditions: input 10, 20, 2, 20 μM for 1–4
# bromodomains = conditions: cited from earlier work
# MDA-MB-231 cells [4] = conditions: for dose dependence of the cellular uptake: 10% FBS (1 and 2) or 5% FBS (3 and 4); for intracellular concentration relative to the input concentration: 24 h, volume of one million cells about 5.5 μL; for incubation time to maximum intracellular concentration: MDA-MB-231 cells; for intracellular moles relative to that of 4: 5% FBS
# MDA-MB-231 cells [5] = conditions: MDA-MB-231, 24 h; input 10, 20, 2, 20 μM for 1–4
# [6] = Stability in DMEM media with or without 10% FBS; format: physicochemical; conditions: 72 h, negligible difference between samples with and without serum
SMILES,"nonspecific binding, 4 °C incubation (decrease of intracellular concentration) (MDA-MB-231 cells [2])","nonspecific binding to the plates, percent of input concentration [3]",inhibitory activities in cell-based NanoBRET assays (bromodomains),dose dependence of the cellular uptake (MDA-MB-231 cells [4]; 6 h),"intracellular concentration relative to the input concentration (MDA-MB-231 cells [4]; input 10, 20, 2, 20 μM for 1–4)",incubation time to maximum intracellular concentration (MDA-MB-231 cells [4]),other results
"CC(=O)c1cc(-c2cc(C(=O)NC3CC3)ccc2C)c2ncccn12 [Compound 1, TP-472, reference compound]",77%,1%,submicromolar,first order,–,–,permeability through the artificial membrane [1]: good permeability
"Cc1cc2c(cc1N1C(=O)c3cccc4c(CCCO)ccc(c34)C1=O)n(C)c(=O)n2C [Compound 2, BAY-299, reference compound]",–,–,submicromolar,first order,–,–,"cellular uptake (percent of the compound accumulated in the cells) (MDA-MB-231 cells [5]): < 1%; increase in inhibitor cellular uptake (MDA-MB-231 cells [4]; 10-time increase in the input concentration (20–200 μM), 6 h): 13 times"
Cl.Cl.O=C(Nc1ccc(O[C@H]2CCNC2)c(-c2ccc(F)cc2)c1)c1ccc(O[C@H]2CCNC2)c(-c2ccc(F)c(F)c2)c1 [Compound 3],15%,–,–,logarithmic pattern (saturation kinetics),about 600 times,3 to 6 h,"cell permeability relative to 4 (MDA-MB-231 cells [4]; equal input concentrations compared (Figure 6)): 1.7 times; intracellular moles relative to that of 4 (MDA-MB-231 cells [4]; input concentration 2 μM, 6 h): 1.9 times; intracellular moles relative to that of 4 (MDA-MB-231 cells [4]; input concentration 20 μM, 6 h): 1.5 times"
Cl.Cl.O=C(c1cc(F)cc(N2CCNCC2)c1)N1CCN(C(=O)c2ccc(O[C@H]3CCNC3)c(C3CCCCC3)c2)CC1 [Compound 4],4%,1%,–,plateaued when the input concentration was increased from 20 to 200 μM; also recorded: saturated at input concentrations >20 μM,~65 times,3 to 6 h,"compound remaining (percent of the initial concentration) [6]: about 85%; rate of decrease of intracellular moles (MDA-MB-231 cells [4]; input 20 μM, over 72 h, first order): about 85.5 ± 8.2 pmol/(million cells × h); time dependence of intracellular moles (metabolic stability in cells) (MDA-MB-231 cells [4]; over 72 h, input 10, 20, 2, 20 μM for 1–4): less stable"
CCOC(=O)CCCn1c2ccccc2c2nc3nonc3nc21 [Compound 8],–,–,–,–,–,–,cell-bound inhibitors at 4 °C (MDA-MB-231 cells [2]): little or no nonspecific binding
